Earlier results, collected in patent US20110274751A1 (Sanovel Ilac Sanayi Ve Ticaret Anonim Sirketi, priority 2010, published 2011).
Structures can show the parent of a compound that is named as a salt.

Legend:
[1] = in vivo

Row | solubility in water (water) | half-life [1] [h] | solubility | Compound
1 | highly-soluble | – | – | COc1ccc(CN2CCNCC2)c(OC)c1OC [Trimetazidine dihydrochloride]
2 | – | 6 | considerably high solubility | COc1ccc(CN2CCNCC2)c(OC)c1OC [Trimetazidine, 1-(2,3,4-trimethoxybenzyl)piperazine]
